One assay deals with T1, RXRα (Homo sapiens, UniProt P19793).
T1 construct: made in house; used as extract protein
T1 sequence (P19793 1-462): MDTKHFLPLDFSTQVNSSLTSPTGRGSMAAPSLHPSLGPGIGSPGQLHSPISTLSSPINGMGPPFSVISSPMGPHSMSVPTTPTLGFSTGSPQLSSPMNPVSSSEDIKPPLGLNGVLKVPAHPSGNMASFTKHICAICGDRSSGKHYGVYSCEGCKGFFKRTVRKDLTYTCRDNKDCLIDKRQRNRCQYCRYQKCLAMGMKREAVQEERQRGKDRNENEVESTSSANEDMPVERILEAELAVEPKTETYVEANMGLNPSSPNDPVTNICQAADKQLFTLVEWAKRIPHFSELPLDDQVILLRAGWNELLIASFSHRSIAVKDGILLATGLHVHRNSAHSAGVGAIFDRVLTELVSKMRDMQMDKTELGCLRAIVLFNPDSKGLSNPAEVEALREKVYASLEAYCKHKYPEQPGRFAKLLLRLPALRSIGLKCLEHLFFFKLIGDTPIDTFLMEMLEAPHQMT
The assay is described as follows: Ligand binding assay, RXRα. The following applies: receptor expressed in Baculovirus; Cheng-Prussof from IC50. How it is done:
(§1) A holoreceptor transactivation assay and a ligand binding assay which measure the ability of the compounds of the invention to bind to the several retinoid receptor subtypes, respectively, are described in published PCT Application No. WO W093/11755 (particularly on pages 30-33 and 37-41) published on Jun. 24, 1993, the specification of which is also incorporated herein by reference. A description of the ligand binding assay is also provided below.
(§2) All binding assays were performed in a similar fashion. All six receptor types were derived from the expressed receptor type (RAR α, β, Γ and RXR α, β, Γ) expressed in Baculovirus. Stock solutions of all compounds were prepared as 10 mM ethanol solutions and serial dilutions carried out into 1:1 DMSO; ethanol. Assay buffers consisted of the following for all six receptor assays: 8% glycerol, 120 mM KCl, 8 mM Tris, 5 mM CHAPS 4 mM DTT and 0.24 mM PMSF, pH-7.4@room temperature.
(§3) All receptor biding assays were performed in the same manner. The final assay volume was 250 μl and contained from 10-40 μg of extract protein depending on receptor being assayed along with 5 nM of [^3H] all-trans retinoic acid or 10 nM [^3H] 9-cis retinoic acid and varying concentrations of competing ligand at concentrations that ranged from 0-10^−5 M. The assays were formatted for a 96 well minitube system. Incubations were carried out at 4° C. until equilibrium was achieved. Non-specific binding was defined as that binding remaining in the presence of 1000 nM of the appropriate unlabeled retinoic acid isomer. At the end of the incubation period, 50 μl of 6.25% hydroxyapitite was added in the appropriate wash buffer. The wash buffer consisted of 100 mM KCl, 10 mM Tris and either 5 mM CHAPS (RXR α, β, Γ) or 0.5% Triton X-100 (RAR α, β, Γ). The mixture was vortexed and incubated for 10 minutes at 4° C., centrifuged and the supernatant removed. The hydroxyapitite was washed three more times with the appropriate wash buffer. The receptor-ligand complex was adsorbed by the hydroxyapitite. The amount of receptor-ligand complex was determined by liquid scintillation counting of hydroxyapitite pellet.
(§4) After correcting for non-specific binding, IC50 values were determined. […] The IC50 value was determined graphically from a loglogit plot of the data. The […] were determined by application of the Cheng-Prussof equation to the IC50 values, the labeled ligand concentration and the Kd of the labeled ligand.
(§5) The results of ligand binding assay are expressed in Kd numbers. (See Chena et al. Biochemical Pharmacology Vol. 22 pp 3099-3108, expressly incorporated herein by reference.)

The next assay concerns the target T2, RXRβ (UniProt P28704).
T2 construct: All six receptor types were derived from the expressed receptor type (RAR α, β, Γ and RXR α, β, Γ) expressed in Baculovirus
T2 sequence (P28704 1-520): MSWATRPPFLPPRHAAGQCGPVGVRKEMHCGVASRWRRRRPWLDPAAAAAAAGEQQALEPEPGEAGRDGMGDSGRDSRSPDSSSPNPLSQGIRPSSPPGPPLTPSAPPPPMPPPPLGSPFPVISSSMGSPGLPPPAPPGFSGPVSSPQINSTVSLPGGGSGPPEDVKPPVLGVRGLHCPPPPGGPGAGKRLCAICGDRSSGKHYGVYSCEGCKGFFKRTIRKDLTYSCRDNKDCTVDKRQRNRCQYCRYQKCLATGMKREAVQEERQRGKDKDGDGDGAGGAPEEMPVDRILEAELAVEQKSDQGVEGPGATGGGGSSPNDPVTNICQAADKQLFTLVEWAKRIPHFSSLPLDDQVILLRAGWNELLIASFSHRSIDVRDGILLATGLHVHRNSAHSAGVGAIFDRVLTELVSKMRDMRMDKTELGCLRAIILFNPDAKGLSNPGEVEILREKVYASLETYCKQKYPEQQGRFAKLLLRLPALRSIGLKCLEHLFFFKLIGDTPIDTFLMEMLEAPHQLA
The assay is described as follows: Ligand binding assay, RXRβ. Conditions: receptor expressed in Baculovirus; Cheng-Prussof from IC50. How it is done: (§6) A description of the ligand binding assay is also provided below.
as §2
as §3, with “At the end of the incubation period, 50 μl of 6.25% hydroxyapitite was added in the appropriate wash buffer.” left out
as §4
(§7) The results of ligand binding assay are expressed in Kd numbers.

The next assay concerns the target T3, RXRΓ (UniProt P28705).
T3 construct: All six receptor types were derived from the expressed receptor type (RAR α, β, Γ and RXR α, β, Γ) expressed in Baculovirus
T3 sequence (P28705 1-463): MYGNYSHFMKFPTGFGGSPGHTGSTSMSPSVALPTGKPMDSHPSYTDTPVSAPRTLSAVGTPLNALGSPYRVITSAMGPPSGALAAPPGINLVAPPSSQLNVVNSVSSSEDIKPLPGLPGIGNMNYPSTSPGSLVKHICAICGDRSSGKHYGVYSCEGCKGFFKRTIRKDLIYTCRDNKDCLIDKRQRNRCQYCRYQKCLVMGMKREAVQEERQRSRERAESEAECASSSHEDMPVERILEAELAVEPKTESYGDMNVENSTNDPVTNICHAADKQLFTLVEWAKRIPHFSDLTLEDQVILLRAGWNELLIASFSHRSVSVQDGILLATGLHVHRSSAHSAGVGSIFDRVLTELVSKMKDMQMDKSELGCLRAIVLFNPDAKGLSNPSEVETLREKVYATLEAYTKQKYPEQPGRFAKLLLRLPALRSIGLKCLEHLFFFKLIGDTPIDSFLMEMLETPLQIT
The assay is described as follows: Ligand binding assay, RXRΓ. The following applies: receptor expressed in Baculovirus; Cheng-Prussof from IC50. How it is done: as §6, §2
as §3, with “At the end of the incubation period, 50 μl of 6.25% hydroxyapitite was added in the appropriate wash buffer.” left out
as §4, §7

The next assay addresses T4, RARα (Homo sapiens, UniProt P10276).
T4 construct: made in house; used as extract protein
T4 sequence (P10276 1-462): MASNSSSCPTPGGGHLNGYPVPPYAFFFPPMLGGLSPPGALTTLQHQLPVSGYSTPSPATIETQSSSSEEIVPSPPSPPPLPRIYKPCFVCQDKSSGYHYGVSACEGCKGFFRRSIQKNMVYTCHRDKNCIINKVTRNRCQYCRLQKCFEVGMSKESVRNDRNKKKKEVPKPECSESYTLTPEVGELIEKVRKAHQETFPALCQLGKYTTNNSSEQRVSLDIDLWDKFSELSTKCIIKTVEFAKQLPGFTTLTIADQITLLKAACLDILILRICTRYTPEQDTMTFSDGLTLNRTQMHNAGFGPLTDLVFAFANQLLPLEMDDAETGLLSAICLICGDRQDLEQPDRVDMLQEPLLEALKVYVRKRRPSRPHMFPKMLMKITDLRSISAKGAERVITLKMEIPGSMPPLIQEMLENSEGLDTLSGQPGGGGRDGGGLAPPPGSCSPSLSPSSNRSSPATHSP
The assay is described as follows: Ligand binding assay, RARα. The following applies: receptor expressed in Baculovirus; [3H] all-trans retinoic acid; Cheng-Prussof from IC50. How it is done:
as §1, §2, §3, §4, §5

A further assay has as its target T5, RARβ (Homo sapiens, UniProt P10826).
T5 construct: made in house; used as extract protein
T5 sequence (P10826 1-455): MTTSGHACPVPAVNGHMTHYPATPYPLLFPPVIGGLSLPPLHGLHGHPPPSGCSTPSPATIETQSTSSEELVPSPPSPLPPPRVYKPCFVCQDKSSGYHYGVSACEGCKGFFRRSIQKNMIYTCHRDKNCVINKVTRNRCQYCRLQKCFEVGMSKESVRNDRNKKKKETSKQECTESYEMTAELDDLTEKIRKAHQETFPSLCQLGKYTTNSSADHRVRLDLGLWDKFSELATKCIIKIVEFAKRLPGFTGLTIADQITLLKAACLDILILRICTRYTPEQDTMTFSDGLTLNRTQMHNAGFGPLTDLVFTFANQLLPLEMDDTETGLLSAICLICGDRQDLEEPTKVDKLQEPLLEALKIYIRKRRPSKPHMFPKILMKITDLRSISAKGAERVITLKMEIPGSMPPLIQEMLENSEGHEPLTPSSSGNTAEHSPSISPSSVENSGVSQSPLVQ
The assay is described as follows: Ligand binding assay, RARβ. Conditions: receptor expressed in Baculovirus; Cheng-Prussof from IC50. The procedure:
as §1, §2
as §3, with “The wash buffer consisted of 100 mM KCl, 10 mM Tris and either 5 mM CHAPS (RXR α, β, Γ) or 0.5% Triton X-100 (RAR α, β, Γ). The mixture was vortexed and incubated for 10 minutes at 4° C., centrifuged and the supernatant removed. The hydroxyapitite was washed three more times with the appropriate wash buffer. The receptor-ligand complex was adsorbed by the hydroxyapitite.” left out
(§8) After correcting for non-specific binding, IC50 values were determined. […] The IC50 value was determined graphically from a loglogit plot of the data. The […] were determined by application of the Cheng-Prussof equation to the IC50 values, the labeled ligand concentration and the Kd of the labeled ligand. […]

The next assay addresses T6, RARΓ (Homo sapiens, UniProt P13631).
T6 construct: made in house; used as extract protein
T6 sequence (P13631 1-454): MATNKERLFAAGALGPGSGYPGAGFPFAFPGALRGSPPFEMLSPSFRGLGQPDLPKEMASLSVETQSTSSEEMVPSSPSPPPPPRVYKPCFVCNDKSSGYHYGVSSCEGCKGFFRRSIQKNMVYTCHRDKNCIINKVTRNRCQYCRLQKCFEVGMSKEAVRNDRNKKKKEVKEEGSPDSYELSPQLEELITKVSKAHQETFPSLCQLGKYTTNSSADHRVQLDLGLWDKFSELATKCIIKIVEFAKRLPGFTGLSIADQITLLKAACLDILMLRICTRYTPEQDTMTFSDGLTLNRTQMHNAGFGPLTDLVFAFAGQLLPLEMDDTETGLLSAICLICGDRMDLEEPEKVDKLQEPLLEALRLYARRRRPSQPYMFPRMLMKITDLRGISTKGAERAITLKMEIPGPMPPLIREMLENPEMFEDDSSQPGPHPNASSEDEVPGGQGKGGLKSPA
The assay is described as follows: Ligand binding assay, RARΓ. The following applies: receptor expressed in Baculovirus; Cheng-Prussof from IC50. The procedure: as §1, §2
as §3, with “The wash buffer consisted of 100 mM KCl, 10 mM Tris and either 5 mM CHAPS (RXR α, β, Γ) or 0.5% Triton X-100 (RAR α, β, Γ). The mixture was vortexed and incubated for 10 minutes at 4° C., centrifuged and the supernatant removed. The hydroxyapitite was washed three more times with the appropriate wash buffer. The receptor-ligand complex was adsorbed by the hydroxyapitite.” left out
as §8

As to “2-Fluoro-4-[(3′,5′-di-t-butyl)phenylcarbamoyl]benzoic Acid [Compound 6]”, the Kd on RXRα, on RXRβ and at RXRΓ was more than 1000 nM throughout.

As to `CC(C)(C)c1cc(C(=O)Nc2ccc(C(=O)O)cc2)cc(C(C)(C)C)n1` [Compound 4], the Kd on RARα was 19 nM; at RARβ, more than 1000 nM; on RARΓ, more than 1000 nM; at RXRα it was more than 1000 nM; at RXRβ, more than 1000 nM; on RXRΓ, more than 1000 nM.

Take `CC(C)(C)c1cc(C(=O)Nc2ccc(C(=O)O)c(F)c2)c(O)c(C(C)(C)C)c1` [Compound 8]: the dissociation constant (Kd) on RARα was 77 nM; on RARβ it was more than 1000 nM; at RARΓ, more than 1000 nM; at RXRα, more than 1000 nM; at RXRβ, more than 1000 nM; on RXRΓ, more than 1000 nM.

In the case of `CC(C)(C)c1cc(C(=O)Nc2cc(F)c(C(=O)O)c(F)c2)cc(C(C)(C)C)n1` [Compound 10], the equilibrium dissociation constant (Kd) on RARα is 62 nM; on RXRβ, more than 1000 nM; on RXRΓ, more than 1000 nM.

As to `CC(C)(C)c1cc(C(=O)Nc2cc(F)c(C(=O)O)c(F)c2)cc(C(C)(C)C)c1` [Compound 12], the values for the equilibrium dissociation constant (Kd) on RARα, on RXRβ and on RXRΓ were 87 nM, more than 1000 nM and more than 1000 nM, respectively.

Take `CC(C)(C)c1cc(C(=O)Nc2ccc(C(=O)O)c([N+](=O)[O-])c2)cc(C(C)(C)C)n1` [Compound 14]: the results for the Kd on RARα, at RXRβ and at RXRΓ were 94 nM, more than 1000 nM and more than 1000 nM, respectively.

For `CC(C)(C)c1cc(C(=O)Nc2ccc(C(=O)O)cc2)cc(C(C)(C)C)c1` [Compound 15, reference compound], the Kd is 37 nM at RARα; more than 1000 nM on RARβ; more than 1000 nM at RARΓ; more than 1000 nM at RXRα; more than 1000 nM at RXRβ; more than 1000 nM at RXRΓ.

Source of the values: patent US20020091262A1, “Substituted aryl or heteroarylamides having retinoid-like biological activity” (Allergan, priority 1995, published 2002).
